The assay concerns MV-4-11 cells. Kind of assay: Gene expression microarray analysis (Affymetrix PrimeView) and GSEA. In kind it is cell-based, human. Also on record: RFU PODN (11730768_x_at) / Fold change /veh PODN (11730768_x_at) / RFU LINC00158 (11744669_a_at) / Fold change /veh LINC00158 (11744669_a_at) / RFU DUSP10 (11751237_a_at) / Fold change /veh DUSP10 (11751237_a_at) / RFU ID3 (11757404_x_at) / Fold change /veh ID3 (11757404_x_at) / RFU PLEKHG5 (11737974_s_at) / Fold change /veh PLEKHG5 (11737974_s_at) / RFU LRRC4B (11730491_at) / Fold change /veh LRRC4B (11730491_at) / RFU GIMAP4 (11747438_a_at) / Fold change /veh GIMAP4 (11747438_a_at) / RFU KRT8 (11758183_x_at) / Fold change /veh KRT8 (11758183_x_at) / RFU CNN1 (11734310_a_at) / Fold change /veh CNN1 (11734310_a_at) / RFU VPS37D (11726825_at) / Fold change /veh VPS37D (11726825_at) / RFU C10orf10 (11716522_x_at) / Fold change /veh C10orf10 (11716522_x_at) / RFU KIR2DL2 /// KIR2DL4 /// KIR2DL5A /// KIR2DL5B /// KIR2DS1 /// KIR2DS2 /// KIR2DS3 /// KIR2DS4 /// KIR3DL3 /// KIR3DL3 /// KIR3DS1 (11738374_at) / Fold change /veh KIR2DL2 /// KIR2DL4 /// KIR2DL5A /// KIR2DL5B /// KIR2DS1 /// KIR2DS2 /// KIR2DS3 /// KIR2DS4 /// KIR3DL3 /// KIR3DL3 /// KIR3DS1 (11738374_at) / RFU C1QL1 (11718748_at) / Fold change /veh C1QL1 (11718748_at) / RFU TMPRSS4 (11747572_a_at) / Fold change /veh TMPRSS4 (11747572_a_at) / RFU HAMP (11756126_x_at) / Fold change /veh HAMP (11756126_x_at) / RFU RNFT2 (11725882_a_at) / Fold change /veh RNFT2 (11725882_a_at) / RFU NR4A2 (11747474_a_at) / Fold change /veh NR4A2 (11747474_a_at) / RFU ABCC12 (11746883_a_at) / Fold change /veh ABCC12 (11746883_a_at) / RFU TMEM136 (11760407_x_at) / Fold change /veh TMEM136 (11760407_x_at) / RFU CLDN22 /// WWC2 (11732394_at) / Fold change /veh CLDN22 /// WWC2 (11732394_at) / RFU HLA-DPB1 (11760878_x_at) / Fold change /veh HLA-DPB1 (11760878_x_at) / RFU SPINT1 (11716480_a_at) / Fold change /veh SPINT1 (11716480_a_at) / RFU GAP43 (11754022_s_at) / Fold change /veh GAP43 (11754022_s_at) / RFU A4GNT (11735810_at) / Fold change /veh A4GNT (11735810_at) / RFU PRB3 (11715151_x_at) / Fold change /veh PRB3 (11715151_x_at) / RFU TUBB4B (11761932_at) / Fold change /veh TUBB4B (11761932_at) / RFU CAPN14 (11732068_a_at) / Fold change /veh CAPN14 (11732068_a_at) / RFU TMCC2 (11721928_a_at) / Fold change /veh TMCC2 (11721928_a_at) / RFU IRGQ (11745062_a_at) / Fold change /veh IRGQ (11745062_a_at) / RFU FAM174B (11720279_a_at) / Fold change /veh FAM174B (11720279_a_at) / RFU TMPRSS4 (11748680_a_at) / Fold change /veh TMPRSS4 (11748680_a_at) / RFU FAM212B (11763350_a_at) / Fold change /veh FAM212B (11763350_a_at) / RFU PLEKHG5 (11743358_a_at) / Fold change /veh PLEKHG5 (11743358_a_at) / RFU ZSCAN30 (11745921_a_at) / Fold change /veh ZSCAN30 (11745921_a_at) / RFU CMKLR1 (11741424_a_at) / Fold change /veh CMKLR1 (11741424_a_at) / RFU LOC101060620 /// MAPK8IP1 (11723275_at) / Fold change /veh LOC101060620 /// MAPK8IP1 (11723275_at) / RFU SPTSSB (11747773_x_at) / Fold change /veh SPTSSB (11747773_x_at) / RFU PRSS12 (11739890_at) / Fold change /veh PRSS12 (11739890_at) / RFU BIN1 (11741810_x_at) / Fold change /veh BIN1 (11741810_x_at) / RFU WNT11 (11732464_a_at) / Fold change /veh WNT11 (11732464_a_at) / RFU C10orf10 (11716521_a_at) / Fold change /veh C10orf10 (11716521_a_at) / RFU C5orf56 (11738089_at) / Fold change /veh C5orf56 (11738089_at) / RFU CYB561 (11721691_x_at) / Fold change /veh CYB561 (11721691_x_at) / RFU ANKRD19P (11752326_a_at) / Fold change /veh ANKRD19P (11752326_a_at) / RFU OR2T12 /// OR2T33 /// OR2T8 (11738714_s_at) / Fold change /veh OR2T12 /// OR2T33 /// OR2T8 (11738714_s_at) / RFU VCAN (11748164_a_at) / Fold change /veh VCAN (11748164_a_at) / RFU JSRP1 (11732532_at) / Fold change /veh JSRP1 (11732532_at) / RFU KRTAP10-11 (11738290_x_at) / Fold change /veh KRTAP10-11 (11738290_x_at) / RFU MYO3A (11730013_a_at) / Fold change /veh MYO3A (11730013_a_at) / RFU EBF3 (11725865_a_at) / Fold change /veh EBF3 (11725865_a_at) / RFU CAMK2N1 (11719241_x_at) / Fold change /veh CAMK2N1 (11719241_x_at) / RFU C5orf56 (11738088_a_at) / Fold change /veh C5orf56 (11738088_a_at) / RFU OLFML3 (11715873_a_at) / Fold change /veh OLFML3 (11715873_a_at) / RFU LOC100653217 /// NTM (11731650_a_at) / Fold change /veh LOC100653217 /// NTM (11731650_a_at) / RFU MAPK11 (11762145_a_at) / Fold change /veh MAPK11 (11762145_a_at) / RFU FIZ1 (11724087_x_at) / Fold change /veh FIZ1 (11724087_x_at) / RFU OASL (11726364_x_at) / Fold change /veh OASL (11726364_x_at) / RFU SOX15 (11748057_x_at) / Fold change /veh SOX15 (11748057_x_at) / RFU CD79A (11719716_a_at) / Fold change /veh CD79A (11719716_a_at) / RFU HIST1H1D (11736915_at) / Fold change /veh HIST1H1D (11736915_at) / RFU CASKIN2 (11723855_a_at) / Fold change /veh CASKIN2 (11723855_a_at) / RFU LOC730098 (11760151_x_at) / Fold change /veh LOC730098 (11760151_x_at) / RFU OR4N2 (11742367_at) / Fold change /veh OR4N2 (11742367_at) / RFU PRRT2 (11749266_a_at) / Fold change /veh PRRT2 (11749266_a_at) / RFU SNX32 (11753110_a_at) / Fold change /veh SNX32 (11753110_a_at) / RFU CDHR5 (11726645_a_at) / Fold change /veh CDHR5 (11726645_a_at) / RFU RCAN1 (11760418_a_at) / Fold change /veh RCAN1 (11760418_a_at) / RFU FAM167A (11723789_a_at) / Fold change /veh FAM167A (11723789_a_at) / RFU FAM26E (11764081_at) / Fold change /veh FAM26E (11764081_at) / RFU ISYNA1 (11749810_s_at) / Fold change /veh ISYNA1 (11749810_s_at) / RFU ACY1 (11761880_at) / Fold change /veh ACY1 (11761880_at) / RFU 11764098_at / Fold change /veh 11764098_at / RFU SAMD14 (11745864_x_at) / Fold change /veh SAMD14 (11745864_x_at) / RFU NPB (11741838_a_at) / Fold change /veh NPB (11741838_a_at) / RFU TMPRSS6 (11731388_a_at) / Fold change /veh TMPRSS6 (11731388_a_at) / RFU KRTAP10-2 (11738614_at) / Fold change /veh KRTAP10-2 (11738614_at) / RFU ARHGAP8 /// PRR5-ARHGAP8 (11727945_x_at) / Fold change /veh ARHGAP8 /// PRR5-ARHGAP8 (11727945_x_at) / RFU KRTAP5-7 /// NADSYN1 (11734609_at) / Fold change /veh KRTAP5-7 /// NADSYN1 (11734609_at) / RFU RASL12 (11751679_a_at) / Fold change /veh RASL12 (11751679_a_at) / RFU CDKN2B (11736163_a_at) / Fold change /veh CDKN2B (11736163_a_at) / RFU PRF1 (11729649_at) / Fold change /veh PRF1 (11729649_at) / RFU, ZNF638 /// ZNF638-IT1 / Fold change vs veh, ZNF638 /// ZNF638-IT1 / RFU, PANK3 / Fold change vs veh, PANK3 / RFU, SH3YL1 / Fold change vs veh, SH3YL1 / RFU, ZEB2 / Fold change vs veh, ZEB2 / RFU, NRIP1 / Fold change vs veh, NRIP1 / RFU, PTTG1IP / Fold change vs veh, PTTG1IP / RFU, CAPN2 / Fold change vs veh, CAPN2 / RFU, MED14 / Fold change vs veh, MED14 / RFU, SNORA58 / Fold change vs veh, SNORA58 / RFU, C1orf63 / Fold change vs veh, C1orf63 / RFU, LRRFIP1 / Fold change vs veh, LRRFIP1 / RFU, NDUFAF7 / Fold change vs veh, NDUFAF7 / RFU, SLC12A2 / Fold change vs veh, SLC12A2 / RFU, IBTK / Fold change vs veh, IBTK / RFU, ESF1 / Fold change vs veh, ESF1 / Fold change vs veh, TMEM50B / RFU, TAOK1 / Fold change vs veh, TAOK1 / RFU, ACBD3 / Fold change vs veh, ACBD3 / RFU, TMA16 / Fold change vs veh, TMA16 / RFU, RWDD3 / Fold change vs veh, RWDD3 / RFU, BCAT1 / Fold change vs veh, BCAT1 / RFU, EDEM3 / Fold change vs veh, EDEM3 / RFU, TMEM33 / Fold change vs veh, TMEM33 / RFU, WDR75 / Fold change vs veh, WDR75 / RFU, AHCTF1 / Fold change vs veh, AHCTF1 / RFU, TFRC / Fold change vs veh, TFRC / RFU, ZDHHC17 / Fold change vs veh, ZDHHC17 / RFU, NOM1 / Fold change vs veh, NOM1 / RFU, ARL8B / Fold change vs veh, ARL8B / RFU, ZBTB11 / Fold change vs veh, ZBTB11 / RFU, TAMM41 / Fold change vs veh, TAMM41 / RFU, KIAA1704 /// LOC100996395 / Fold change vs veh, KIAA1704 /// LOC100996395 / RFU, ING1 / Fold change vs veh, ING1 / RFU, TRMT61B / Fold change vs veh, TRMT61B / RFU, FUBP3 / Fold change vs veh, FUBP3 / RFU, TP53 / Fold change vs veh, TP53 / RFU, TNKS2 / Fold change vs veh, TNKS2 / RFU, ZFP14 / Fold change vs veh, ZFP14 / RFU, ACTR2 / Fold change vs veh, ACTR2 / RFU, PPP3R1 / Fold change vs veh, PPP3R1 / RFU, PIK3R1 / Fold change vs veh, PIK3R1 / RFU, HNRNPA1 / Fold change vs veh, HNRNPA1 / RFU, RNF170 / Fold change vs veh, RNF170 / RFU, ZNF28 / Fold change vs veh, ZNF28 / RFU, RNGTT / Fold change vs veh, RNGTT / RFU, OGT / Fold change vs veh, OGT / RFU, BRD1 / Fold change vs veh, BRD1 / RFU, MARS / Fold change vs veh, MARS / RFU, ZNF655 / Fold change vs veh, ZNF655 / RFU, FAHD1 / Fold change vs veh, FAHD1 / RFU, BDP1 / Fold change vs veh, BDP1 / RFU, LRRCC1 / Fold change vs veh, LRRCC1 / RFU, ARID1A / Fold change vs veh, ARID1A / RFU, ZNF146 / Fold change vs veh, ZNF146 / RFU, ZNF330 / Fold change vs veh, ZNF330 / RFU, GPN3 / Fold change vs veh, GPN3 / RFU, C9orf123 / Fold change vs veh, C9orf123 / RFU, N4BP2L2 / Fold change vs veh, N4BP2L2 / RFU, ARFIP1 / Fold change vs veh, ARFIP1 / RFU, FAM179B / Fold change vs veh, FAM179B / RFU, BCL10 / Fold change vs veh, BCL10 / RFU, UHRF1BP1L / Fold change vs veh, UHRF1BP1L / RFU, BET1 / Fold change vs veh, BET1 / RFU, CNOT2 / Fold change vs veh, CNOT2 / RFU, ZNF268 / Fold change vs veh, ZNF268 / Fold change vs veh, ZNF507 / RFU, DGCR2 / Fold change vs veh, DGCR2 / RFU, WDSUB1 / Fold change vs veh, WDSUB1 / Fold change vs veh, HSP90B1 /// MIR3652 / RFU, ADSS / Fold change vs veh, ADSS / RFU, GK / Fold change vs veh, GK / RFU, ZNF148 / Fold change vs veh, ZNF148 / RFU, TAF9 / Fold change vs veh, TAF9 / RFU, SLC1A5 / Fold change vs veh, SLC1A5 / RFU, SLMO2 / Fold change vs veh, SLMO2 / RFU, ABCC4 / Fold change vs veh, ABCC4 / RFU, LOC101060439 /// RAP1B / Fold change vs veh, LOC101060439 /// RAP1B / RFU, RFX7 / Fold change vs veh, RFX7 / RFU, GTPBP10 / Fold change vs veh, GTPBP10 / RFU, CNEP1R1 / Fold change vs veh, CNEP1R1 / RFU, BIVM-ERCC5 /// ERCC5 / Fold change vs veh, BIVM-ERCC5 /// ERCC5 / RFU, ILF3 / Fold change vs veh, ILF3 / RFU 11762660_at / Fold change /veh 11762660_at / RFU VCAN (11757783_s_at) / Fold change /veh VCAN (11757783_s_at) / RFU DDX43 (11728927_at) / Fold change /veh DDX43 (11728927_at) / RFU KRT8 (11758188_x_at) / Fold change /veh KRT8 (11758188_x_at) / RFU NKD1 (11759106_at) / Fold change /veh NKD1 (11759106_at) / RFU SRD5A1 (11742802_a_at) / Fold change /veh SRD5A1 (11742802_a_at) / RFU TPSAB1 /// TPSB2 (11721975_s_at) / Fold change /veh TPSAB1 /// TPSB2 (11721975_s_at) / RFU GSTM3 (11746129_a_at) / Fold change /veh GSTM3 (11746129_a_at) / RFU IL23R (11737362_x_at) / Fold change /veh IL23R (11737362_x_at) / RFU TMEM51 (11727254_a_at) / Fold change /veh TMEM51 (11727254_a_at) / RFU PIWIL2 (11732686_x_at) / Fold change /veh PIWIL2 (11732686_x_at) / RFU ORM1 (11744905_x_at) / Fold change /veh ORM1 (11744905_x_at) / RFU CCDC152 (11743942_at) / Fold change /veh CCDC152 (11743942_at) / RFU ECM1 (11717891_a_at) / Fold change /veh ECM1 (11717891_a_at) / RFU IL23R (11748794_a_at) / Fold change /veh IL23R (11748794_a_at) / RFU TNFAIP8L3 (11732012_x_at) / Fold change /veh TNFAIP8L3 (11732012_x_at) / RFU MBOAT4 (11741988_at) / Fold change /veh MBOAT4 (11741988_at) / RFU 11764193_at / Fold change /veh 11764193_at / RFU TMEM53 (11763286_at) / Fold change /veh TMEM53 (11763286_at) / RFU MAGEB2 (11727129_at) / Fold change /veh MAGEB2 (11727129_at) / RFU TMEM200A (11744735_a_at) / Fold change /veh TMEM200A (11744735_a_at) / RFU CCDC152 (11751479_a_at) / Fold change /veh CCDC152 (11751479_a_at) / RFU FAM211A (11726209_a_at) / Fold change /veh FAM211A (11726209_a_at) / RFU RGS16 (11746705_a_at) / Fold change /veh RGS16 (11746705_a_at) / RFU VCAN (11755009_s_at) / Fold change /veh VCAN (11755009_s_at) / RFU RHOB (11743442_s_at) / Fold change /veh RHOB (11743442_s_at) / RFU RGS16 (11720943_a_at) / Fold change /veh RGS16 (11720943_a_at) / RFU RGS16 (11720944_at) / Fold change /veh RGS16 (11720944_at) / RFU, VPS4B / Fold change vs veh, VPS4B / RFU, CREB1 / Fold change vs veh, CREB1 / RFU, DNAJC13 / Fold change vs veh, DNAJC13 / RFU, GNAQ / Fold change vs veh, GNAQ / RFU, CDK5R1 / Fold change vs veh, CDK5R1 / RFU, ZRANB3 / Fold change vs veh, ZRANB3 / RFU, CUL4A / Fold change vs veh, CUL4A / RFU, CCNY / Fold change vs veh, CCNY / RFU, UFL1 / Fold change vs veh, UFL1 / RFU, COG3 / Fold change vs veh, COG3 / RFU, DIAPH2 / Fold change vs veh, DIAPH2 / RFU, SKA2 / Fold change vs veh, SKA2 / RFU, AFF3 / Fold change vs veh, AFF3 / RFU, LMF1 / Fold change vs veh, LMF1 / RFU, IPO11 / Fold change vs veh, IPO11 / RFU, DFFB / Fold change vs veh, DFFB / RFU, FOXP1 / Fold change vs veh, FOXP1 / RFU, CARD8 / Fold change vs veh, CARD8 / RFU, STRN3 / Fold change vs veh, STRN3 / RFU, ADK / Fold change vs veh, ADK / RFU, RASSF2 / Fold change vs veh, RASSF2 / RFU, WIPF1 / Fold change vs veh, WIPF1 / RFU, LARP1B / Fold change vs veh, LARP1B / RFU, RASA1 / Fold change vs veh, RASA1 / RFU, RB1 / Fold change vs veh, RB1 / RFU, PPFIA1 / Fold change vs veh, PPFIA1 / RFU, MAT2A / Fold change vs veh, MAT2A / RFU, CCT5 / Fold change vs veh, CCT5 / RFU, WDR92 / Fold change vs veh, WDR92 / RFU, CUX1 / Fold change vs veh, CUX1 / RFU, TTC7A / Fold change vs veh, TTC7A / RFU, TMEM135 / Fold change vs veh, TMEM135 / RFU, DEPTOR / Fold change vs veh, DEPTOR / RFU, CPM / Fold change vs veh, CPM / RFU, DNAJB6 / Fold change vs veh, DNAJB6 / RFU, CACNA2D3 / Fold change vs veh, CACNA2D3 / RFU, DTX4 / Fold change vs veh, DTX4 / RFU, TFCP2 / Fold change vs veh, TFCP2 / RFU, GMCL1 /// GMCL1P1 / Fold change vs veh, GMCL1 /// GMCL1P1 / RFU, AEBP2 / Fold change vs veh, AEBP2 / RFU, SNHG1 /// SNORD22 /// SNORD25 /// SNORD26 /// SNORD27 /// SNORD28 /// SNORD29 /// SNORD31 / Fold change vs veh, SNHG1 /// SNORD22 /// SNORD25 /// SNORD26 /// SNORD27 /// SNORD28 /// SNORD29 /// SNORD31 / Fold change (Aza/veh), C12orf56 (ProbeSet 11735607_a_at) / Fold change (ACY-1035/veh), C12orf56 (ProbeSet 11735607_a_at) / Fold change (Aza/veh), FGFR1OP (ProbeSet 11751329_s_at) / Fold change (ACY-1035/veh), FGFR1OP (ProbeSet 11751329_s_at) / Fold change (Aza/veh), VPS36 (ProbeSet 11739960_a_at) / Fold change (ACY-1035/veh), VPS36 (ProbeSet 11739960_a_at) / RFU SYPL1 (11715823_x_at) / Fold change /veh SYPL1 (11715823_x_at) / RFU IGFBP7 (11715501_s_at) / Fold change /veh IGFBP7 (11715501_s_at) / RFU REEP3 (11722064_at) / Fold change /veh REEP3 (11722064_at) / RFU IGLL1 (11728026_x_at) / Fold change /veh IGLL1 (11728026_x_at): dose or concentration left out as unconfirmed. The note with it: ProbeSet 11740781_a_at; LIST B.

Each structure is given as a SMILES string.

Take `Nc1ncn([C@@H]2O[C@H](CO)[C@@H](O)[C@H]2O)c(=O)n1` [azacitidine]: the “Fold change vs veh, ILF3” value came out at 0.96.

Source of the values: publication PMC5218480 (PLoS ONE, 2017).
